In US12214009B2, “Compositions and methods for improving bruising and rejuvenating skin” (Alastin Skincare, Inc., priority 2019, dated 2025):

Experiments:
[1] = system: macrophages (RAW-Difluo mLC3 autophagy reporter cells) phagocytosing human red blood cells; test: Macrophage phagocytosis of red blood cells (heme absorbance); assay type: cell-based; conditions: FIG. 6; 24 h; peptide alone; tripeptide-1 2.9 ug/mL, hexapeptide-11 100 ug/mL, hexapeptide-12 2.9 ug/mL
Description: The assay was performed according to manufacturer's instructions (Cell BioLabs, Inc.). Macrophages used were RAW-Difluo mLC3 autophagy reporter cells. Human red blood cells (RBCs) were obtained from ZenBio (catalog number SER-10MLRBC). Briefly, 24 hours before the assay, macrophages were plated on 96-well plates. One plate was plated with 12,500 macrophages and a second plate with 25,000 macrophages. The day of the assay, human red blood cells (RBCs) were opsonized with human RBC antibody. As a negative control, sheep RBCs were opsonized with human RBC antibody. The media was then replaced with either peptide or no peptide. Blood was added to the plates at a 200:1 RBC to macrophage ratio. Phagocytosis was measured beginning at 2 hours after blood was added. The media and blood were removed from the wells of the plate. The plate was washed once with RBC lysis buffer to remove non-phagocytosed RBCs followed by two washes with PBS. Macrophage lysis buffer was then added to the plate and the lysed solution was transferred to a 96-well plate. The substrate solution to detect heme was added to the 96-well plate and absorbance was recorded at 1 minute, 5 minutes, 10, minutes, and 20 minutes. FIGS. 1B-1C show images of macrophage phagocytosis prior to red blood cell (RBC) washout (FIG. 1B) and after RBC washout (FIG. 1C). Arrows indicate macrophages with RBCs (hollow circles). […]

[2] = Penetration ability log Kow; assay type: physicochemical
Description: A water suspension of liposomes was prepared with 1.5% of hydrophilic molecule A or 300 ppm (0.03%) hydrophilic molecule B, and 27% Pro-Lipo™ Neo. […] Molecule B was a hexapeptide (hexapeptide-38) with a molecular weight of (870 g/mol) and a penetration ability log Kow of −1.13. A water solution with 1.5% A or 300 ppm B was used as a control (non-entrapped molecule).

[3] = system: dermal and epidermal hyaluronic acid level; conditions: ex vivo human skin model; cited from earlier work

Compound: tripeptide-1
- phagocytosis relative to NT control [1]: decrease or no change

Compound: Cn1c(=O)c2c(ncn2C)n(C)c1=O [Molecule A, caffeine]
- penetration ability log Kow [2]: −0.07

Compound: hexapeptide-11
- phagocytosis relative to NT control [1]: decrease or no change

Compound: CCCCCCCC(=O)CCc1ccc(O)c(OC)c1 [Hydroxymethoxyphenyl decanone]
- stimulation of dermal hyaluronic acid level versus placebo [3]: 259%
- stimulation of epidermal hyaluronic acid level versus placebo [3]: 198%
